pIC50: −log10 of the molar value.
Columns and labels:
[1] = molecular target: T1, cholesterol esterase (EC 3.1.1.13) (Bos taurus, UniProt P30122); test: in vitro inhibition of cholesteryl ester formation by cholesterol esterase; format: biochemical, bovine; details: 37° C., cholesterol and oleic acid, cholesterol esterase from bovine pancreas; read-out: IC50 (concentration that inhibits one-half of the ester formation)
T1 construct: purchased Sigma Chemical Company, St. Louis, Mo., USA C-1892; host or cells: bovine pancreas
T1 sequence (P30122 19-597): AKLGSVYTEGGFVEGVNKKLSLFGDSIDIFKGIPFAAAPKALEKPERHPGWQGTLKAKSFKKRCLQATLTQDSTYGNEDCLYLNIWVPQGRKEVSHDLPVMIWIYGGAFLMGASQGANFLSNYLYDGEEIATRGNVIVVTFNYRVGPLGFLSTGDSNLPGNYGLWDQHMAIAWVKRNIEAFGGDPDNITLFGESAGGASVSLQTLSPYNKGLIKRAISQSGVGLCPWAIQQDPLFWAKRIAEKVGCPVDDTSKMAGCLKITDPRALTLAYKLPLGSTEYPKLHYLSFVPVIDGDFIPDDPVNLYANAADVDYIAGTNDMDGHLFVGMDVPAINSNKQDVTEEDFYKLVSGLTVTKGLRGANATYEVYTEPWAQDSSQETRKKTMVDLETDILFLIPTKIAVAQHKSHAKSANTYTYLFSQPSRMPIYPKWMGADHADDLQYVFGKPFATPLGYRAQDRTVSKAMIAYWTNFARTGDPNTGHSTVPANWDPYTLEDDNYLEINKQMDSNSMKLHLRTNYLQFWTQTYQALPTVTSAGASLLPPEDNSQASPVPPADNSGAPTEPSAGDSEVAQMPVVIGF
Method: The ability of the compounds of this invention to inhibit the formation of cholesteryl esters and thereby interfere with and prevent assimilation of cholesterol into the lymphatic system and ultimately the blood stream was established by incubating the compounds at 37° C. with a mixture of cholesterol and oleic acid in the presence of buffered cholesterol esterase [(EC 3.1.1.13) Sigma Chemical Company, St. Louis, Mo., USA, No. C-1892, from bovine pancreas] and measuring the amount of ester formed, according to the procedure of Field, J. of Lipid Research, 25 389 (1984).

cholesterol absorption = test: in vivo cholesterol absorption study, serum radioactivity after oral [4-^14C] cholesterol; details: Rattus norvegicus, 6 h, normal rats, serum radioactivity at six hours, vs control, read-out: Decrease in [^14C] Cholesterol Absorption
Method: The in vivo cholesterol absorption studies were conducted in normal rats by oral administration of the compound being tested in propylene glycol and olive oil followed by oral administration of [4-^14 C] cholesterol in propylene glycol and olive oil, otherwise following the procedure of Cayen et al., J. Lipid Res. 20 162 (1979). The serum radioactivity was measured at six hours after dosing. The results of this study are reported in the following Table, where available, as percent decrease compared to control and in terms of the effective dose (ED50) inhibiting fifty-percent of the absorption of the control animals.

Structure (SMILES)	pIC50 [1]	inhibition in vivo at 50 mg/kg (cholesterol absorption) [%]	inhibition in vivo at 10 mg/kg (cholesterol absorption; 10 mg/kg) [%]	inhibition in vivo at 100 mg/kg (cholesterol absorption) [%]	inhibition in vivo at 20 mg/kg (cholesterol absorption) [%]
O=C(Oc1ccc(Oc2ccccc2)cc1)N1CCC(O)CC1 [Example 44, 4-Hydroxy1-piperidinecarboxylic acid 4-phenoxyphenyl ester]	5.72	49			
CCCC1CCN(C(=O)Oc2ccc(Oc3ccccc3)cc2)CC1 [Example 45, 4Propyl-1-piperidinecarboxylic acid 4-phenoxyphenyl ester]	7.15		41		
O=C(O)C1CCN(C(=O)Oc2ccc(Oc3ccccc3)cc2)CC1 [Example 46, 1.4-Piperidinedicarboxylic acid 1-(1-phenoxyphenyl ester)]	4.36			55	
CC1(C)CCCN(C(=O)Oc2ccc(Oc3ccccc3)cc2)C1 [Example 47, 3,3-Dimethyl-1-piperidinecarboxylic acid 4-phenoxyphenyl ester]	5.80				67
CC(=O)OC1CCN(C(=O)Oc2ccc(Oc3ccccc3)cc2)CC1 [Example 48, 4-(Acetyloxy)-1-piperidinecarboxylic acid 4-phenoxyphenyl ester]	6.27	41			
COC(=O)c1cc(Oc2ccccc2)ccc1OC(=O)N1CCC(C)CC1 [Example 49, 4-Methyl-1-piperidinecarboxylic acid 2-(methoxycarbonyl)-4-phenoxyphenyl ester]	6.47	28			
CC(C)C1CCN(C(=O)Oc2ccc(Oc3ccccc3)cc2)CC1 [Example 51, 4-(1-Methylethyl)-1-piperidinecarboxylic acid 4-phenoxyphenyl ester]	6.60				66
O=C(Oc1ccc(Oc2ccccc2)cc1)N1CCC2(CCCC2)CC1 [Example 52, 8-Azaspiro[4,5]decan-8-carboxylic acid 4-phenoxyphenyl ester]	6.12	78			
CCCCCCCCCCCCOC(=O)C1CCN(C(=O)Oc2ccc(Oc3ccccc3)cc2)CC1 [Example 53, 1,4-Piperidinedicarboxylic acid 4-dodecyl 1-(4-phenoxyphenyl) diester]	< 4.00			44	
CC1CCN(C(=O)Oc2ccc(Oc3ccccc3)cc2C#N)CC1 [Example 54, 4-Methyl-1-piperidinecarboxylic acid 2-cyano-4-phenoxyphenyl ester]	6.36	36			
CC1CCN(C(=O)Oc2ccc(Oc3ccccc3)cc2C(=O)O)CC1 [Example 55]	4.50	16			
O=C(Oc1ccc(Oc2ccccc2)cc1)N1CCC(CBr)CC1 [Example 57, 4-(Bromomethyl)-1-piperidinecarboxylic acid, 4-phenoxyphenyl ester]	7.10	87			
CCCCCCCCCCCCOC(=O)c1cc(Oc2ccccc2)ccc1OC(=O)N1CCC(C)CC1 [Example 58, 4-Methyl-1-piperidinecarboxylic acid 2-(dodecycloxycarbonyl)-4-phenoxyphenyl ester]	6.47	37			
CCN(CC)CC1CCN(C(=O)Oc2ccc(Oc3ccccc3)cc2)CC1 [Example 60]	< 4.00	49			
CC[N+](CC)(CC)CC1CCN(C(=O)Oc2ccc(Oc3ccccc3)cc2)CC1 [Example 61, Triethyl 1-[(4-phenoxyphenoxy)carbonyl]-4-piperidinemethanaminium iodide]	< 4.00	33			
CC1CCCCN1C(=O)Oc1ccc(Oc2ccccc2)cc1 (stereo not shown) [Example 63, 2-Methyl-1-piperidinecarboxylic acid 4-phenoxyphenyl ester]	< 4.00	68			
CCCCCCCC/C=C\CCCCCCCCNC(=O)Oc1ccc(Oc2ccccc2)cc1 [Example 67, (Z)-9-Octadecenylcarbamic acid 4-phenoxyphenyl ester]	3.20			49	

Source: patent publication US5391571A, “Cholesterol ester hydrolase inhibitors” (priority 1993, dated 1995)
